Tests used:
[1] = target: Endonuclease 8-like 1 (Homo sapiens) (UniProt Q96FI4); details: Hit No;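 also: fluorescence at 594 nm from quenched duplex DNA oligonucleotides released by NEIL1 cleavage and strand separation, reported as reduction of this enzyme activity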
Description: Inhibition of NEIL1 by quantifying inhibition of NEIL1-mediated cleavage and dissociation of quenched duplex DNA oligonucleotides, measured as fluorescence at 594 nm.

[2] = target: T1, Endonuclease 8-like 2 (Homo sapiens) (UniProt Q969S2); details: Hit No;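 also: fluorescence at 594 nm reports NEIL2 cutting and release of a quenched double-stranded DNA oligo substrate, reduced signal read as inhibition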
T1 sequence (whole entry): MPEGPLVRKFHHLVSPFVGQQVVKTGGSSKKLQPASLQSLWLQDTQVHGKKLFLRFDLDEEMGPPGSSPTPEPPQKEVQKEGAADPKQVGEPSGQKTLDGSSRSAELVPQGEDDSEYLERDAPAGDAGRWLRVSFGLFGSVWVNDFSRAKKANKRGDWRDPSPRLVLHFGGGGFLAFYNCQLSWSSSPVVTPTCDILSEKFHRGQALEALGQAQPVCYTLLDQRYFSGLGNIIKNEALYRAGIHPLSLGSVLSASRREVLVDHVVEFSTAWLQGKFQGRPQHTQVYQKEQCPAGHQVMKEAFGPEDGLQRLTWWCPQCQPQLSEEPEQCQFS
Description: Inhibition of NEIL2 by quantifying inhibition of NEIL2-mediated cleavage and dissociation of quenched duplex DNA oligonucleotides, measured as fluorescence at 594 nm.

[3] = target: T2, Endonuclease III-like protein 1 (Homo sapiens) (UniProt P78549); details: Compound Concentration 10.0 uM, Hit No;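 also: enzyme assay tracking NTHL1 cutting and release of a quenched double-stranded DNA oligo substrate, read as fluorescence at 594 nm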
T2 sequence (whole entry): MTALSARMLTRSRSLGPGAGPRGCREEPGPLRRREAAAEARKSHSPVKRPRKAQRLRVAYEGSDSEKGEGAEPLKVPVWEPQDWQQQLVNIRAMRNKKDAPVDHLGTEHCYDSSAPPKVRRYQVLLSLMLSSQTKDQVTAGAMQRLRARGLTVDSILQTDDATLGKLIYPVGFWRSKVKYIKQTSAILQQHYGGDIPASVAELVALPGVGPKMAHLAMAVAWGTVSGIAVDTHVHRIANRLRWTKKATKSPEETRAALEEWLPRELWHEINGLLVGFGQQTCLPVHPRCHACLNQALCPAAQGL
Description: Inhibition of NTHL1 by quantifying inhibition of NTHL1-mediated cleavage and dissociation of quenched duplex DNA oligonucleotides, measured as fluorescence at 594 nm.

[4] = target: N-glycosylase/DNA lyase (Homo sapiens) (UniProt O15527); details: Hit No;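 also: OGG1 cleavage of a quenched duplex DNA oligonucleotide, coupled to APE1 for strand incision, read as fluorescence at 594 nm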
Description: Inhibition of OGG1 by quantifying inhibition of OGG1-mediated cleavage and dissociation of quenched duplex DNA oligonucleotides, measured as fluorescence at 594 nm. To generate a functional strand incision and increase turn-over this assay is coupled to APE1.

[5] = target: Uracil-DNA glycosylase (Homo sapiens) (UniProt P13051); details: Hit No;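 also: UNG excision on a quenched double-stranded DNA oligo probe, with APE1 added for strand incision and turnover, read as fluorescence at 594 nm as strands separate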
Description: Inhibition of UNG by quantifying inhibition of UNG-mediated cleavage and dissociation of quenched duplex DNA oligonucleotides, measured as fluorescence at 594 nm. To generate a functional strand incision and increase turn-over this assay is coupled to APE1.

[6] = target: G/T mismatch-specific thymine DNA glycosylase (Homo sapiens) (UniProt Q13569); details: Hit No;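 also: human TDG cleavage of quenched duplex DNA oligonucleotides coupled to APE1, strand release read as fluorescence at 594 nm, inhibition of TDG activity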
Description: Inhibition of TDG by quantifying inhibition of TDG-mediated cleavage and dissociation of quenched duplex DNA oligonucleotides, measured as fluorescence at 594 nm. To generate a functional strand incision and increase turn-over this assay is coupled to APE1.

[7] = target: T3, Single-strand selective monofunctional uracil DNA glycosylase (Homo sapiens) (UniProt Q53HV7); details: Hit No;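 also: enzymatic SMUG1 assay coupled with APE1, reading fluorescence at 594 nm released when a quenched double-stranded DNA oligonucleotide substrate is cleaved and separated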
T3 sequence (whole entry): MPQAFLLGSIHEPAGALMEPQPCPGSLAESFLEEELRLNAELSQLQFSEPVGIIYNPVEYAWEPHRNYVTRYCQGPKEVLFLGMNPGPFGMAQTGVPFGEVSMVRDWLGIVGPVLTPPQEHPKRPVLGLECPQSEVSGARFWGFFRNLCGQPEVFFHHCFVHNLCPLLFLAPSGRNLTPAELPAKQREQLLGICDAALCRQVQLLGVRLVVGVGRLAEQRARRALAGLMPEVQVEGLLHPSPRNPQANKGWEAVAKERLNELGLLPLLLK
Description: Inhibition of SMUG1 by quantifying inhibition of SMUG1-mediated cleavage and dissociation of quenched duplex DNA oligonucleotides, measured as fluorescence at 594 nm. To generate a functional strand incision and increase turn-over this assay is coupled to APE1.

[8] = target: Methyl-CpG-binding domain protein 4 (Homo sapiens) (UniProt O95243); details: Hit No;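 also: MBD4 activity read as fluorescence at 594 nm from cleavage and release of a quenched duplex DNA oligonucleotide, with APE1 coupled to incise the strand and raise turnover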
Methyl-CpG-binding domain protein 4 (Homo sapiens), sequence (O95243 whole entry, the tested form may be a part): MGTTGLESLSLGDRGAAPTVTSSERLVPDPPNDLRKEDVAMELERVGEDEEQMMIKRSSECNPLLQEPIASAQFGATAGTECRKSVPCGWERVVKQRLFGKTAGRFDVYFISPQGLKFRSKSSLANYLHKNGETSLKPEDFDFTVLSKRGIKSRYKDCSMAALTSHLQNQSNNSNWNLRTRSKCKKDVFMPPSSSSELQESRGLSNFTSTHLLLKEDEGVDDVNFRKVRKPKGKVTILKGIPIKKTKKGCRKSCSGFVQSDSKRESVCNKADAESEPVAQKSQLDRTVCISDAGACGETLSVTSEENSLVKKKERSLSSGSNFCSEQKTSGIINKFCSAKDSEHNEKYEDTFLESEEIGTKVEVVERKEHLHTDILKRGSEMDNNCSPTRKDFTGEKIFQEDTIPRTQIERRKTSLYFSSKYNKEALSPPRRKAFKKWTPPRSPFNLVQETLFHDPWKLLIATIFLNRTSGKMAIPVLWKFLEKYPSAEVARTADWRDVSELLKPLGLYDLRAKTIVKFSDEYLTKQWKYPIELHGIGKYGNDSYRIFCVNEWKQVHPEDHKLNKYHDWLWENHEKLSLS
Description: Inhibition of MBD4 by quantifying inhibition of MBD4-mediated cleavage and dissociation of quenched duplex DNA oligonucleotides, measured as fluorescence at 594 nm. To generate a functional strand incision and increase turn-over this assay is coupled to APE1.

N-glycosylase/DNA lyase (Homo sapiens), sequence (O15527 whole entry): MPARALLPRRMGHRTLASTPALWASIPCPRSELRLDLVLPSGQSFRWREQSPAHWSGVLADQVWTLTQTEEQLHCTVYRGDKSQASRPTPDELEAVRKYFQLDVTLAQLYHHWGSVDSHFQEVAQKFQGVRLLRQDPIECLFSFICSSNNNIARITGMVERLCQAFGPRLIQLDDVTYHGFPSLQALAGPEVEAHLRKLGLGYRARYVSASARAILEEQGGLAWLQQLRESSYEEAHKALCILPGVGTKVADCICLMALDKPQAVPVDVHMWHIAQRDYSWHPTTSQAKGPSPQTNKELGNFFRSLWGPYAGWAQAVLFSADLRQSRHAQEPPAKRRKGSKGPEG
Endonuclease 8-like 1 (Homo sapiens), sequence (Q96FI4 whole entry): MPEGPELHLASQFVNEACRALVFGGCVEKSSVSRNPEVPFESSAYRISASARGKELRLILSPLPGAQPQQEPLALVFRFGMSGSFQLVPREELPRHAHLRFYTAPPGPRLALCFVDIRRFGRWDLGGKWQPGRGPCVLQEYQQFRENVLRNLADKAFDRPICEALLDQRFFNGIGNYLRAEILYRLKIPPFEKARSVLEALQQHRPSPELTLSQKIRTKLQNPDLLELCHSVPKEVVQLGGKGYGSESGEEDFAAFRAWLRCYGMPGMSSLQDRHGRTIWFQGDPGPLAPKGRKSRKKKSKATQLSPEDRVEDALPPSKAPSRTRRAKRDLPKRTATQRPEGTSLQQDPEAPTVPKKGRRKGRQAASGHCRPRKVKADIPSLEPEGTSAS
Uracil-DNA glycosylase (Homo sapiens), sequence (P13051 whole entry): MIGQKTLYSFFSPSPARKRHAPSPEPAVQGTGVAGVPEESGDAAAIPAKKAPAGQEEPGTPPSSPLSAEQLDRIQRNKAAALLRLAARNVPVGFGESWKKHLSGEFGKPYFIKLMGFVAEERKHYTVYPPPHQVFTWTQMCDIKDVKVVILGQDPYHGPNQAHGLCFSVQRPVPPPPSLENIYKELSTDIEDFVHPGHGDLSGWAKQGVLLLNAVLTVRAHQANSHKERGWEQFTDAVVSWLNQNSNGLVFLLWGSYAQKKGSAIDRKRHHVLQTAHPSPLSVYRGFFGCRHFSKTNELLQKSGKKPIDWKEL
G/T mismatch-specific thymine DNA glycosylase (Homo sapiens), sequence (Q13569 whole entry): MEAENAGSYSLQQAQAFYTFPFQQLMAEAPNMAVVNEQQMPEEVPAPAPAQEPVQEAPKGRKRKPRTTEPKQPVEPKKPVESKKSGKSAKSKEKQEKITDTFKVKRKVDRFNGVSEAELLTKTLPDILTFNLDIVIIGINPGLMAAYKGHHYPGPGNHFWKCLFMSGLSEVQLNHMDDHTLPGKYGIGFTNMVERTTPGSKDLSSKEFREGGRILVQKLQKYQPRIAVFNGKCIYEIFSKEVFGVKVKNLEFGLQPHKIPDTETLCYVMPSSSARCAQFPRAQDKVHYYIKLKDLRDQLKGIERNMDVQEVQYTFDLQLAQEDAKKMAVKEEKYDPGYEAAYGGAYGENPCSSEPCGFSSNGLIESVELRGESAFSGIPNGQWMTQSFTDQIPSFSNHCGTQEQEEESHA

SMILES	inhibition ([1]; Compound Concentration 10.0 uM)	inhibition ([2]; Compound Concentration 10.0 uM)	inhibition [3]	inhibition ([4]; Compound Concentration 10.0 uM)	inhibition ([5]; Compound Concentration 10.0 uM)	inhibition ([6]; Compound Concentration 10.0 uM)	other results
CCCCCCOc1cc2n(c(=O)n1)CCc1cc(OC)c(OC)cc1-2	1.64%	-5.45%	-4.39%				
N#Cc1c(N)nc(SCC(N)=O)c(C#N)c1-c1ccc(OCC2CC2)cc1	5.43%	6.25%	13.7%	6.64%			
O=c1[nH]c(=O)c2nc3ccccc3nc2[nH]1	4.1%	5.26%	14.4%				
CN1CCN(c2nc3cc(C(F)(F)F)ccc3n3cccc23)CC1	-1.92%	16.2%	16.2%	-6.12%	0.522%		
COc1ccc(S(=O)(=O)N2C(=O)[C@@](c3ccccc3OC)(N3C[C@H](O)C[C@H]3C(=O)N(C)C)c3cc(Cl)ccc32)c(OC)c1	2.68%	-8.25%	-0.258%		1.21%		
CCc1nn2c(C)cc(C)nc2c1Cc1ccc(-c2nnc(C3CCNCC3)o2)cc1	6.02%	2.26%	-9.8%	-9.16%		1.84%	
CC(C)CNc1nc(N2CCN(CC3CCCOC3)CC2)ncc1C(=O)NCc1ccccc1 (centres undefined)	2.23%	-0.0955%	-1.08%		-1.17%		
CN(C(=O)c1ccccc1)c1cc(N(C)c2ccc3c(c2)CCc2ccc(C(=O)NCCN4CCOCC4)cc2C3=O)ccc1F	-3.21%	-1.45%	3.6%	-2.17%			
CC[C@H](CC(=O)O)n1c(=O)c2ncccc2n(Cc2cn(C)c3cc(C)cc(C)c23)c1=O	0.164%	-5.34%		0.279%	0.131%	46.4%	inhibition ([7]; Compound Concentration 10.0 uM): -8.88%; inhibition ([8]; Compound Concentration 10.0 uM): 56.1%
Oc1c(CN2CCN(c3ccccn3)CC2)cc(Cl)c2cccnc12	-9.54%	7.5%	39.3%				
O=C(NCCN1CCOCC1)c1ccc2c(c1)C(=O)c1ccc(Nc3ccc(F)c(NC(=O)c4ccccc4)c3)cc1CC2	-5.6%	-4.66%	0.366%				
O=C(NCCN1CCC(n2c(=O)[nH]c3cc(Cl)ccc32)CC1)c1ccc(F)cc1	5.43%	1.51%	-1.74%			-0.00915%	
COc1ccc2cc(OCC3(C(=O)O)CN(C(=O)c4ccc(F)cc4)C3)ccc2c1							inhibition ([6]; Compound Concentration 1.0 uM): 50.2%; inhibition ([1]; Compound Concentration 1.0 uM): 0.467%; inhibition ([5]; Compound Concentration 1.0 uM): -0.296%; inhibition ([7]; Compound Concentration 1.0 uM): 4.5%; inhibition ([4]; Compound Concentration 1.0 uM): -4.88%; inhibition ([2]; Compound Concentration 1.0 uM): -2.53%; inhibition ([8]; Compound Concentration 1.0 uM): 76.6%
CCOc1ccc(-n2c([C@@H](C)N(Cc3cccnc3)C(=O)Cc3ccc(F)c(C(F)(F)F)c3)nc3ncccc3c2=O)cc1	6.83%	-4.17%	5.52%		-5.43%		
CCC[C@H]1CNCc2c1[nH]c(=O)c(C#N)c2N1CCC2(CC1)CC2	9.71%	-0.999%		2.34%	0.94%	100%	inhibition ([7]; Compound Concentration 10.0 uM): 6.33%; inhibition ([8]; Compound Concentration 10.0 uM): 58.5%
CSCC[C@H](NC(=O)[C@H](Cc1ccc(O)cc1)NC(=O)[C@H](CCCCN)NC(=O)[C@@H](N)Cc1c[nH]c2ccccc12)C(=O)N[C@H](C(=O)N[C@H](CCSC)C(N)=O)C(C)C	13.1%	-4.17%	21.2%		-1.7%		

SMILES	inhibition ([1]; Compound Concentration 10.0 uM)	inhibition ([2]; Compound Concentration 10.0 uM)	inhibition [3]	inhibition ([4]; Compound Concentration 10.0 uM)	inhibition ([5]; Compound Concentration 10.0 uM)	inhibition ([6]; Compound Concentration 10.0 uM)	other results
CCC(F)(F)c1cc(N2CCC(S(C)(=O)=O)CC2)nc2sc(C(N)=O)c(N)c12	-3.46%	-1.2%		-8.21%	3.95%	39.1%	inhibition ([7]; Compound Concentration 10.0 uM): 8.86%; inhibition ([8]; Compound Concentration 10.0 uM): 38.2%
CN1C(=O)c2sccc2N(C)c2nc(Nc3ccc(S(N)(=O)=O)cc3)ncc21							inhibition ([6]; Compound Concentration 1.0 uM): 40.8%; inhibition ([1]; Compound Concentration 1.0 uM): -7.66%; inhibition ([5]; Compound Concentration 1.0 uM): -4.58%; inhibition ([7]; Compound Concentration 1.0 uM): 9.9%; inhibition ([4]; Compound Concentration 1.0 uM): 5.53%; inhibition ([2]; Compound Concentration 1.0 uM): -6.76%; inhibition ([8]; Compound Concentration 1.0 uM): 27.4%
CN1CCN(c2ccc(/C=C(\C#N)c3ccccc3Br)cc2)CC1	-2.11%	-0.489%		25.6%	4.48%	42.1%	inhibition ([7]; Compound Concentration 10.0 uM): 7.83%; inhibition ([8]; Compound Concentration 10.0 uM): 55.3%
CCc1nn(CCCN2CCN(c3cccc(Cl)c3)CC2)c(=O)n1CCOc1ccccc1	-3.02%	-4.48%	7.79%		-5.52%		
C[C@@H](c1cccc(C#N)c1)n1cc(Cl)cc(C(N)=O)c1=N	-4.99%	12%		1.26%	3.37%	46.5%	inhibition ([7]; Compound Concentration 10.0 uM): 9.26%; inhibition ([8]; Compound Concentration 10.0 uM): 67%
CCCC(=O)C1CCN(c2ncnc3c2CN(C(=O)c2ccc(-c4ccccc4)cc2)CC3)CC1	0.75%	-0.605%	12.1%	-4.93%	-3.39%		
COc1cccc(CNC(=O)c2nc3scc(COCc4ccc(C(=O)O)cc4)c3c(=O)[nH]2)c1							inhibition ([6]; Compound Concentration 1.0 uM): 99.5%; inhibition ([1]; Compound Concentration 1.0 uM): -1.5%; inhibition ([5]; Compound Concentration 1.0 uM): -0.0979%; inhibition ([7]; Compound Concentration 1.0 uM): 18.6%; inhibition ([4]; Compound Concentration 1.0 uM): 12.5%; inhibition ([2]; Compound Concentration 1.0 uM): -2.53%; inhibition ([8]; Compound Concentration 1.0 uM): 56%
CC(C)Oc1ccc(-c2nc(-c3cccc4c3CC[C@@H]4NCCO)no2)cc1C#N	-0.352%	5.51%	1.19%			-9.98%	
Clc1ccc(-c2nc3sccn3c2/C=N/OCc2ccc(Cl)c(Cl)c2)cc1	1.22%	2.57%		1.07%	-2.04%	76.8%	inhibition ([7]; Compound Concentration 10.0 uM): 12%; inhibition ([8]; Compound Concentration 10.0 uM): 15.6%
CCCSc1nc(N[C@@H]2C[C@H]2c2ccc(F)c(F)c2)c2nnn([C@@H]3C[C@H](OCCO)[C@@H](O)[C@H]3O)c2n1	-9.1%		11.4%	-6.84%	-5.37%	-6.53%	
CS(=O)(=O)NCC[C@H](NC(=O)c1cncc2c1cnn2-c1ccc(F)cc1)c1ccnc(S(C)(=O)=O)c1							inhibition ([6]; Compound Concentration 1.0 uM): 50.4%; inhibition ([1]; Compound Concentration 1.0 uM): -4.23%; inhibition ([5]; Compound Concentration 1.0 uM): -0.0979%; inhibition ([7]; Compound Concentration 1.0 uM): 6.65%; inhibition ([4]; Compound Concentration 1.0 uM): -0.705%; inhibition ([2]; Compound Concentration 1.0 uM): 0.0213%; inhibition ([8]; Compound Concentration 1.0 uM): 64.7%
Cc1c(Cc2ccc3ccccc3n2)c2cc(F)ccc2n1CC(=O)O	9.88%	30.2%	-6.14%				
O=C(Nc1ccc(Oc2ccc(F)cc2)cc1)N1CCc2ncccc2[C@H]1c1ccc(F)cc1							inhibition ([6]; Compound Concentration 1.0 uM): 48.4%; inhibition ([1]; Compound Concentration 1.0 uM): -9.68%; inhibition ([5]; Compound Concentration 1.0 uM): -3.31%; inhibition ([7]; Compound Concentration 1.0 uM): 3.93%; inhibition ([4]; Compound Concentration 1.0 uM): -3.07%; inhibition ([2]; Compound Concentration 1.0 uM): -5.34%; inhibition ([8]; Compound Concentration 1.0 uM): 71%
CN(CCN1CCC(OC(=O)Nc2ccccc2-c2ccccc2)CC1)C(=O)c1ccc(CN2CCC(C(N)=O)CC2)cc1	3.95%	-7.72%	15.8%	-7.57%			
CCCC(=O)C1(c2ccccc2)CCN(C(=O)[C@@H](Cc2ccc(OC)cc2)NC(=O)[C@@H](N)Cc2cncn2C)CC1	0.454%	-1.37%	-2.73%	-8.78%	-7.56%		
Cc1c(Oc2ccc(F)cc2)c(OC(C)C)nn1-c1ccc(C2CC2)cn1							inhibition ([6]; Compound Concentration 1.0 uM): 52%; inhibition ([1]; Compound Concentration 1.0 uM): -5.44%; inhibition ([5]; Compound Concentration 1.0 uM): 0.0471%; inhibition ([7]; Compound Concentration 1.0 uM): 8.77%; inhibition ([4]; Compound Concentration 1.0 uM): 10.1%; inhibition ([2]; Compound Concentration 1.0 uM): 1.55%; inhibition ([8]; Compound Concentration 1.0 uM): 59%

Reference: ChEMBL document CHEMBL5665443, “Enzyme Inhibitor Single Concentration assay results for EUbOPEN Chemogenomics Library” (2024)
